target: KRas G12D (Homo sapiens (Human), UniProt P01116, G12D); assay: KRas G12D Binding Assay (TR-FRET displacement of Cy5 labelled tracer); settings: GDP-loaded KRAS G12D (amino acids 1:169), 60 minute incubation at 22° C.
Description: After a 60 minute incubation at 22° C., the reaction was measured using a PerkinElmer EnVision multimode plate reader via TR-FRET dual wavelength detection, and the percent of control (POC) calculated using a ratiometric emission factor. […] The POC values were fit to a 4-parameter logistic curve and the IC50 value was determined as the concentration where the curve crosses 50 POC.
ND stands for “not determined.”

Sequence of KRas G12D (P01116 other isoform, or with tags, fused parts or gaps G12D): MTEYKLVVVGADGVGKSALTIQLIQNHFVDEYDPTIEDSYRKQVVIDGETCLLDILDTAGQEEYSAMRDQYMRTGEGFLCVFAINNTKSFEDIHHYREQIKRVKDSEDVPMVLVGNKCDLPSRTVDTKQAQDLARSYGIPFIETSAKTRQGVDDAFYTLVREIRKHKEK

Row | Structure (SMILES) | IC50
1 | C#Cc1cccc2cc(OC)cc(-c3ncc4c(N5C[C@H]6CC[C@@H](C5)N6)nc(OCC56CCCN5CCC6)nc4c3F)c12 [Example 231, 4-((1R,5S)-3,8-diazabicyclo[3.2.1]octan-3-yl)-7-(8-ethynyl-3-methoxynaphthalen-1-yl)-8-fluoro-2-((hexahydro-1H-pyrrolizin-7a-yl)methoxy)pyrido[4,3-d]pyrimidine] | 19.8 nM
2 | C#Cc1c(F)ccc2cc(O)cc(-c3ncc4c(N5C[C@H]6CC[C@@H](C5)N6)nc(OCC56CCCN5CCC6)nc4c3F)c12 [Example 232, 4-(4-((1R,5S)-3,8-diazabicyclo[3.2.1]octan-3-yl)-8-fluoro-2-((tetrahydro-1H-pyrrolizin-7a(5H)-yl)methoxy)pyrido[4,3-d]pyrimidin-7-yl)-5-ethynyl-6-fluoronaphthalen-2-ol] | 0.6 nM
3 | c1ccc2c(-c3cc4nc(OCC56CCCN5CCC6)nc(N5C[C@H]6CC[C@@H](C5)N6)c4cn3)cccc2c1 [Example 233, 4-((1R,5S)-3,8-diazabicyclo[3.2.1]octan-3-yl)-7-(naphthalen-1-yl)-2-((tetrahydro-1H-pyrrolizin-7a(5H)-yl)methoxy)pyrido[4,3-d]pyrimidine] | 387 nM
4 | Fc1c(-c2cccc3cccc(F)c23)ncc2c(N3C[C@H]4CC[C@@H](C3)N4)nc(OCC34CCCN3CCC4)nc12 [Example 234, 4-((1R,5S)-3,8-diazabicyclo[3.2.1]octan-3-yl)-8-fluoro-7-(8-fluoronaphthalen-1-yl)-2-((tetrahydro-1H-pyrrolizin-7a(5H)-yl)methoxy)pyrido[4,3-d]pyrimidine] | 5.9 nM
5 | Fc1c(-c2cccc3cccc(Br)c23)ncc2c(N3C[C@H]4CC[C@@H](C3)N4)nc(OCC34CCCN3CCC4)nc12 [Example 235, 4-((1R,5S)-3,8-diazabicyclo[3.2.1]octan-3-yl)-7-(8-bromonaphthalen-1-yl)-8-fluoro-2-((tetrahydro-1H-pyrrolizin-7a(5H)-yl)methoxy)pyrido[4,3-d]pyrimidine] | 1.2 nM
6 | COc1cccc2cccc(-c3ncc4c(N5C[C@H]6CC[C@@H](C5)N6)nc(OCC56CCCN5CCC6)nc4c3F)c12 [Example 236, 4-((1R,5S)-3,8-diazabicyclo[3.2.1]octan-3-yl)-8-fluoro-2-((hexahydro-1H-pyrrolizin-7a-yl)methoxy)-7-(8-methoxynaphthalen-1-yl)pyrido[4,3-d]pyrimidine] | 25 nM
7 | Oc1cccc2cccc(-c3ncc4c(N5C[C@H]6CC[C@@H](C5)N6)nc(OCC56CCCN5CCC6)nc4c3F)c12 [Example 237, 8-(4-((1R,5S)-3,8-diazabicyclo[3.2.1]octan-3-yl)-8-fluoro-2-((tetrahydro-1H-pyrrolizin-7a(5H)-yl)methoxy)pyrido[4,3-d]pyrimidin-7-yl)naphthalen-1-ol] | 500 nM
8 | OCc1cccc2cccc(-c3ncc4c(N5C[C@H]6CC[C@@H](C5)N6)nc(OCC56CCCN5CCC6)nc4c3F)c12 [Example 238, (8-(4-((1R,5S)-3,8-diazabicyclo[3.2.1]octan-3-yl)-8-fluoro-2-((tetrahydro-1H-pyrrolizin-7a(5H)-yl)methoxy)pyrido[4,3-d]pyrimidin-7-yl)naphthalen-1-yl)methanol] | 16.1 nM
9 | OCCc1cccc2cccc(-c3ncc4c(N5C[C@H]6CC[C@@H](C5)N6)nc(OCC56CCCN5CCC6)nc4c3F)c12 [Example 239, 2-(8-(4-((1R,5S)-3,8-diazabicyclo[3.2.1]octan-3-yl)-8-fluoro-2-((tetrahydro-1H-pyrrolizin-7a(5H)-yl)methoxy)pyrido[4,3-d]pyrimidin-7-yl)naphthalen-1-yl)ethan-1-ol] | 2 nM
10 | NC(=O)Cc1cccc2cccc(-c3ncc4c(N5C[C@H]6CC[C@@H](C5)N6)nc(OCC56CCCN5CCC6)nc4c3F)c12 [Example 240, 2-(8-(4-((1R,5S)-3,8-diazabicyclo[3.2.1]octan-3-yl)-8-fluoro-2-((tetrahydro-1H-pyrrolizin-7a(5H)-yl)methoxy)pyrido[4,3-d]pyrimidin-7-yl)naphthalen-1-yl)acetamide] | 315 nM
11 | NCC#Cc1cccc2cccc(-c3ncc4c(N5C[C@H]6CC[C@@H](C5)N6)nc(OCC56CCCN5CCC6)nc4c3F)c12 [Example 241, 3-(8-(4-((1R,5S)-3,8-diazabicyclo[3.2.1]octan-3-yl)-8-fluoro-2-((tetrahydro-1H-pyrrolizin-7a(5H)-yl)methoxy)pyrido[4,3-d]pyrimidin-7-yl)naphthalen-1-yl)prop-2-yn-1-amine] | 79.2 nM
12 | CCC#Cc1cccc2cccc(-c3ncc4c(N5C[C@H]6CC[C@@H](C5)N6)nc(OCC56CCCN5CCC6)nc4c3F)c12 [Example 242, 4-((1R,5S)-3,8-diazabicyclo[3.2.1]octan-3-yl)-7-(8-(but-1-yn-1-yl)naphthalen-1-yl)-8-fluoro-2-((tetrahydro-1H-pyrrolizin-7a(5H)-yl)methoxy)pyrido[4,3-d]pyrimidine] | 82.2 nM
13 | C#Cc1cccc2cc(O)cc(-c3ncc4c(N5C[C@H]6CC[C@@H](C5)N6)nc(OC[C@@]56CCCN5C[C@H](F)C6)nc4c3F)c12 [Example 243] | 0.4 nM
14 | C#Cc1cccc2cc(O)cc(-c3ncc4c(N5C[C@H]6CC[C@@H](C5)N6)ncnc4c3F)c12 [Example 244, 4-(4-((1R,5S)-3,8-diazabicyclo[3.2.1]octan-3-yl)-8-fluoropyrido[4,3-d]pyrimidin-7-yl)-5-ethynylnaphthalen-2-ol] | 4.2 nM
15 | Oc1cc(-c2ncc3c(N4C[C@H]5CC[C@@H](C4)N5)nc(OCC45CCCN4CCC5)nc3c2F)c2c(Cl)c(F)ccc2c1 [Example 245, 4-(4-((1R,5S)-3,8-diazabicyclo[3.2.1]octan-3-yl)-8-fluoro-2-((hexahydro-1H-pyrrolizin-7a-yl)methoxy)pyrido[4,3-d]pyrimidin-7-yl)-5-chloro-6-fluoronaphthalen-2-ol] | 0.5 nM
16 | Oc1cc(-c2ncc3c(N4C[C@H]5CC[C@@H](C4)N5)nc(OC[C@@]45CCCN4C[C@H](F)C5)nc3c2F)c2c(F)c(F)ccc2c1 [Example 246, 4-(4-((1R,5S)-3,8-diazabicyclo[3.2.1]octan-3-yl)-8-fluoro-2-(((2R,7aS)-2-fluorohexahydro-1H-pyrrolizin-7a-yl)methoxy)pyrido[4,3-d]pyrimidin-7-yl)-5,6-difluoronaphthalene-2-ol] | 0.6 nM
17 | Fc1c(-c2cccc3cccc(CC(F)F)c23)ncc2c(N3C[C@H]4CC[C@@H](C3)N4)nc(OCC34CCCN3CCC4)nc12 [Example 247, 4-((1R,5S)-3,8-diazabicyclo[3.2.1]octan-3-yl)-7-(8-(2,2-difluoroethyl)naphthalen-1-yl)-8-fluoro-2-((hexahydro-1H-pyrrolizin-7a-yl)methoxy)pyrido[4,3-d]pyrimidine] | 12.6 nM
18 | FCCc1cccc2cccc(-c3ncc4c(N5C[C@H]6CC[C@@H](C5)N6)nc(OCC56CCCN5CCC6)nc4c3F)c12 [Example 248, 4-((1R,5S)-3,8-diazabicyclo[3.2.1]octan-3-yl)-8-fluoro-7-(8-(2-fluoroethyl)naphthalen-1-yl)-2-((tetrahydro-1H-pyrrolizin-7a(5H)-yl)methoxy)pyrido[4,3-d]pyrimidine] | 3.2 nM
19 | Cc1cc2[nH]ncc2c(-c2ncc3c(N4C[C@H]5CC[C@@H](C4)N5)nc(OCC45CCCN4CCC5)nc3c2F)c1C [Example 249, 4-((1R,5S)-3,8-diazabicyclo[3.2.1]octan-3-yl)-7-(5,6-dimethyl-1H-indazol-4-yl)-8-fluoro-2-((hexahydro-1H-pyrrolizin-7a-yl)methoxy)pyrido[4,3-d]pyrimidine] | 3.5 nM
20 | Cc1cc2[nH]ccc2c(-c2ncc3c(N4C[C@H]5CC[C@@H](C4)N5)nc(OCC45CCCN4CCC5)nc3c2F)c1C [Example 250, 4-((1R,5S)-3,8-diazabicyclo[3.2.1]octan-3-yl)-7-(5,6-dimethyl-1H-indol-4-yl)-8-fluoro-2-((hexahydro-1H-pyrrolizin-7a-yl)methoxy)pyrido[4,3-d]pyrimidine] | 28.2 nM
21 | Oc1cc(-c2ncc3c(N4C[C@H]5CC[C@@H](C4)N5)nc(OC[C@@]45CCCN4C[C@H](F)C5)nc3c2F)c2c(Cl)cccc2c1 [Example 251, 4-(4-((1R,5S)-3,8-diazabicyclo[3.2.1]octan-3-yl)-8-fluoro-2-(((2R,7aS)-2-fluorohexahydro-1H-pyrrolizin-7a-yl)methoxy)pyrido[4,3-d]pyrimidin-7-yl)-5-chloronaphthalen-2-ol] | 0.2 nM
22 | CCCc1cccc2cccc(-c3ncc4c(N5C[C@H]6CC[C@@H](C5)N6)nc(OCC56CCCN5CCC6)nc4c3F)c12 [Example 254, 4-((1R,5S)-3,8-diazabicyclo[3.2.1]octan-3-yl)-8-fluoro-2-((hexahydro-1H-pyrrolizin-7a-yl)methoxy)-7-(8-propylnaphthalen-1-yl)pyrido[4,3-d]pyrimidine] | 6.1 nM
23 | FCCCc1cccc2cccc(-c3ncc4c(N5C[C@H]6CC[C@@H](C5)N6)nc(OCC56CCCN5CCC6)nc4c3F)c12 [Example 255, 4-((1R,5S)-3,8-diazabicyclo[3.2.1]octan-3-yl)-8-fluoro-7-(8-(3-fluoropropyl)naphthalen-1-yl)-2-((hexahydro-1H-pyrrolizin-7a-yl)methoxy)pyrido[4,3-d]pyrimidine] | 8.7 nM
24 | Cc1ccc(O)cc1-c1ncc2c(N3C[C@H]4CC[C@@H](C3)N4)nc(OCC34CCCN3CCC4)nc2c1F [Example 256, 3-(4-((1R,5S)-3,8-diazabicyclo[3.2.1]octan-3-yl)-8-fluoro-2-((hexahydro-1H-pyrrolizin-7a-yl)methoxy)pyrido[4,3-d]pyrimidin-7-yl)-4-methylphenol] | 13.2 nM
25 | Fc1c(-c2c3ccccc3cc3[nH]ncc23)ncc2c(N3C[C@H]4CC[C@@H](C3)N4)nc(OCC34CCCN3CCC4)nc12 [Example 257, 4-(4-((1R,5S)-3,8-diazabicyclo[3.2.1]octan-3-yl)-8-fluoro-2-((hexahydro-1H-pyrrolizin-7a-yl)methoxy)pyrido[4,3-d]pyrimidin-7-yl)-1H-benzo[f]indazole] | 5.1 nM

Source: patent US20230279025A1, “KRAS G12D INHIBITORS” (Mirati Therapeutics, Inc., priority 2020, published 2023)
